{"source": "patent US20110311601A1", "about": "“ANTIMICROBIAL MEDICAL DEVICES” (priority 2010, published 2011)", "experiment_in_all_cases": "micro-dilution assay (MBC, LD90)", "assay_type_in_all_cases": "cell-based", "key": {"[1]": {"system": "Acinetobacter baumannii ATCC 19606", "procedure": "(§1) The anti-bacterial activity of hβD2 was tested by a micro-dilution assay. Bacteria and fungi were streaked from a glycerol stock onto a Brain Heart Infusion (BHI) agar plate (3.7% w/v BHI Bouillon, 1.5% w/v Agar), grown overnight at 37° C. and 30° C., respectively and subsequently used to inoculate 40 ml of 3.7% w/v BHI Bouillon without any antibiotics in 100 ml flasks. Fresh cells were harvested by centrifugation at 16000 rpm for 10 min and washed twice with 10 mM sodium phosphate buffer, pH 7.2. The optical density was adjusted to 10^4 cells/ml. For anti-bacterial testing hβD2 was incubated in one well of a microtiter plate containing 100 μl of the bacterial suspension. Therefore, ten microlitres of hβD2 solution with a range of final concentrations tested from 0.0125 up to and including 100 mg/l was added to the bacterial suspension and incubated at 37° C. and 30° C., respectively for 2 h before colony forming units were determined. Colony forming units (CFU) were determined after plating 100 μl of a 1:100 dilution of the bacterial suspension on petri dishes with BHI medium and incubating them overnight at 37° C. For every group of the hβD2 added samples and the controls, 5 independent anti-bacterial assays were performed. A control (NC) of bacterial growth was examined for every independent assay. The number of CFU on the control (consisting of a single petri dish) was set to 0% bactericidal activity. The reduction in the CFU resulting from the anti-bacterial activity of hβD2 was related to the absolute CFU of the control within every independent assay. This value, given as a percentage of the bacterial “killing” activity, was used to describe the antibacterial activity. This kind of normalisation of the antibacterial data was performed for every experimental group.\n(§2) The antibacterial activity of hβD2 were given either as minimum bactericidal concentration (MBC), i.e., the minimum concentration of hβD2 in μg/ml which is required to kill 99.9% of the bacteria or fungi or as lethal dose (LD90), i.e., the concentration of hβD2 in μg/ml which is lethal for 90% of bacteria or fungi."}, "[2]": {"system": "Acinetobacter lwoffii ATCC 15309", "procedure": "as §1, §2"}, "[3]": {"system": "Brevundimonas diminuta ATCC 11568", "procedure": "as §1, §2"}, "[4]": {"system": "Burkholderia cepacia ATCC 25416", "procedure": "as §1, §2"}, "[5]": {"system": "Campylobacter jejuni ATCC 33560", "procedure": "as §1, §2"}, "[6]": {"system": "Candida albicans ATCC 10231", "procedure": "as §1, §2"}, "[7]": {"system": "Candida albicans ATCC 24433", "procedure": "as §1, §2"}, "[8]": {"system": "Candida glabrata ATCC 90030", "procedure": "as §1, §2"}, "[9]": {"system": "Citrobacter freundii BK 3796/00 (wild-type)", "procedure": "as §1, §2"}, "[10]": {"system": "Citrobacter freundii NCTC 9750", "procedure": "as §1, §2"}, "[11]": {"system": "Citrobacter freundii UR 1776/03 (wild-type)", "procedure": "as §1, §2"}, "[12]": {"system": "E. coli (ESBI 4) Va 10866/02 (wild-type)", "procedure": "as §1, §2"}, "E. coli ATCC 25922": {"system": "E. coli ATCC 25922", "procedure": "as §1, §2"}, "[13]": {"system": "Enterobacter cloacae Va 12270/03 (wild-type)", "procedure": "as §1, §2"}, "[14]": {"system": "Enterococcus faecium (VRE) W 354 (wild-type)", "procedure": "as §1, §2"}, "[15]": {"system": "Klebsiella pneumoniae (ESBL) CF 2 (wild-type)", "procedure": "as §1, §2"}, "[16]": {"system": "Klebsiella pneumoniae ATCC 13883", "procedure": "as §1, §2"}, "[17]": {"system": "Prevotella intermedia ATCC 25611", "procedure": "as §1, §2"}, "[18]": {"system": "Proteus mirabilis ATCC 9240", "procedure": "as §1, §2"}, "[19]": {"system": "Proteus mirabilis UR 1354/03 (wild-type)", "procedure": "as §1, §2"}, "[20]": {"system": "Proteus mirabilis UR 1536/03 (wild-type)", "procedure": "as §1, §2"}, "[21]": {"system": "Providencia rettgeri NCTC 7475", "procedure": "as §1, §2"}, "[22]": {"system": "Saccharomyces cerevisiae ATCC 9763", "procedure": "as §1, §2"}, "[23]": {"system": "Staphylococcus aureus (MRSA 344) (wild-type)", "procedure": "as §1, §2"}, "[24]": {"system": "Staphylococcus aureus (MRSA 358) (wild-type)", "procedure": "as §1, §2"}, "[25]": {"system": "Staphylococcus aureus ATCC 43300 (MRSA)", "procedure": "as §1, §2"}}, "note": "Where no end group is shown, it is not given here."}
{"substance": "human β-defensin-2 (GIGDPVTCLKSGAICHPVFCPRRYKQIGTCGLPGTKCCKKP; ends and bridges not checked; cysteine pairing not given here) [hβD2, recombinant hβD2]", "values": [{"measurement": "LD 90 = μg/ml 90% killing", "setting": "[1]", "value": 12.5, "unit": "µg/mL"}, {"measurement": "MBC = μg/ml 99.9% killing", "setting": "[1]", "value": 25, "unit": "µg/mL"}, {"measurement": "LD 90 = μg/ml 90% killing", "setting": "[2]", "value": 0.39, "unit": "µg/mL"}, {"measurement": "MBC = μg/ml 99.9% killing", "setting": "[2]", "value": 0.78, "unit": "µg/mL"}, {"measurement": "LD 90 = μg/ml 90% killing", "setting": "[3]", "value": 6.25, "unit": "µg/mL"}, {"measurement": "MBC = μg/ml 99.9% killing", "setting": "[3]", "value": 12.5, "unit": "µg/mL"}, {"measurement": "LD 90 = μg/ml 90% killing", "setting": "[4]", "value": 100, "unit": "µg/mL"}, {"measurement": "MBC = μg/ml 99.9% killing", "setting": "[4]", "value": ">100", "unit": "µg/mL"}, {"measurement": "LD 90 = μg/ml 90% killing", "setting": "[5]", "value": 3.125, "unit": "µg/mL"}, {"measurement": "MBC = μg/ml 99.9% killing", "setting": "[5]", "value": 6.25, "unit": "µg/mL"}, {"measurement": "LD 90 = μg/ml 90% killing", "setting": "[6]", "value": 12.5, "unit": "µg/mL"}, {"measurement": "MBC = μg/ml 99.9% killing", "setting": "[6]", "value": 25, "unit": "µg/mL"}, {"measurement": "LD 90 = μg/ml 90% killing", "setting": "[7]", "value": 3.125, "unit": "µg/mL"}, {"measurement": "MBC = μg/ml 99.9% killing", "setting": "[7]", "value": 25, "unit": "µg/mL"}, {"measurement": "LD 90 = μg/ml 90% killing", "setting": "[8]", "value": 50, "unit": "µg/mL"}, {"measurement": "MBC = μg/ml 99.9% killing", "setting": "[8]", "value": ">100", "unit": "µg/mL"}, {"measurement": "LD 90 = μg/ml 90% killing", "setting": "[9]", "value": 3.125, "unit": "µg/mL"}, {"measurement": "MBC = μg/ml 99.9% killing", "setting": "[9]", "value": 6.25, "unit": "µg/mL"}, {"measurement": "LD 90 = μg/ml 90% killing", "setting": "[10]", "value": 12.5, "unit": "µg/mL"}, {"measurement": "MBC = μg/ml 99.9% killing", "setting": "[10]", "value": 50, "unit": "µg/mL"}, {"measurement": "LD 90 = μg/ml 90% killing", "setting": "[11]", "value": 1.56, "unit": "µg/mL"}, {"measurement": "MBC = μg/ml 99.9% killing", "setting": "[11]", "value": 6.25, "unit": "µg/mL"}, {"measurement": "LD 90 = μg/ml 90% killing", "setting": "[12]", "value": 3.125, "unit": "µg/mL"}, {"measurement": "MBC = μg/ml 99.9% killing", "setting": "[12]", "value": 12.5, "unit": "µg/mL"}, {"measurement": "LD 90 = μg/ml 90% killing", "setting": "E. coli ATCC 25922", "value": 6.25, "unit": "µg/mL"}, {"measurement": "MBC = μg/ml 99.9% killing", "setting": "E. coli ATCC 25922", "value": 12.5, "unit": "µg/mL"}, {"measurement": "LD 90 = μg/ml 90% killing", "setting": "[13]", "value": 6.25, "unit": "µg/mL"}, {"measurement": "MBC = μg/ml 99.9% killing", "setting": "[13]", "value": 12.5, "unit": "µg/mL"}, {"measurement": "LD 90 = μg/ml 90% killing", "setting": "[14]", "value": 50, "unit": "µg/mL"}, {"measurement": "MBC = μg/ml 99.9% killing", "setting": "[14]", "value": 100, "unit": "µg/mL"}, {"measurement": "LD 90 = μg/ml 90% killing", "setting": "[15]", "value": 6.25, "unit": "µg/mL"}, {"measurement": "MBC = μg/ml 99.9% killing", "setting": "[15]", "value": 25, "unit": "µg/mL"}, {"measurement": "LD 90 = μg/ml 90% killing", "setting": "[16]", "value": 12.5, "unit": "µg/mL"}, {"measurement": "MBC = μg/ml 99.9% killing", "setting": "[16]", "value": 25, "unit": "µg/mL"}, {"measurement": "LD 90 = μg/ml 90% killing", "setting": "[17]", "value": 3.125, "unit": "µg/mL"}, {"measurement": "MBC = μg/ml 99.9% killing", "setting": "[17]", "value": 3.125, "unit": "µg/mL"}, {"measurement": "LD 90 = μg/ml 90% killing", "setting": "[18]", "value": 100, "unit": "µg/mL"}, {"measurement": "MBC = μg/ml 99.9% killing", "setting": "[18]", "value": ">100", "unit": "µg/mL"}, {"measurement": "LD 90 = μg/ml 90% killing", "setting": "[19]", "value": 100, "unit": "µg/mL"}, {"measurement": "MBC = μg/ml 99.9% killing", "setting": "[19]", "value": ">100", "unit": "µg/mL"}, {"measurement": "LD 90 = μg/ml 90% killing", "setting": "[20]", "value": 100, "unit": "µg/mL"}, {"measurement": "MBC = μg/ml 99.9% killing", "setting": "[20]", "value": ">100", "unit": "µg/mL"}, {"measurement": "LD 90 = μg/ml 90% killing", "setting": "[21]", "value": 100, "unit": "µg/mL"}, {"measurement": "MBC = μg/ml 99.9% killing", "setting": "[21]", "value": ">100", "unit": "µg/mL"}, {"measurement": "LD 90 = μg/ml 90% killing", "setting": "[22]", "value": 3.125, "unit": "µg/mL"}, {"measurement": "MBC = μg/ml 99.9% killing", "setting": "[22]", "value": 25, "unit": "µg/mL"}, {"measurement": "LD 90 = μg/ml 90% killing", "setting": "[23]", "value": 100, "unit": "µg/mL"}, {"measurement": "MBC = μg/ml 99.9% killing", "setting": "[23]", "value": 100, "unit": "µg/mL"}, {"measurement": "LD 90 = μg/ml 90% killing", "setting": "[24]", "value": 100, "unit": "µg/mL"}, {"measurement": "MBC = μg/ml 99.9% killing", "setting": "[24]", "value": ">100", "unit": "µg/mL"}, {"measurement": "LD 90 = μg/ml 90% killing", "setting": "[25]", "value": 100, "unit": "µg/mL"}, {"measurement": "MBC = μg/ml 99.9% killing", "setting": "[25]", "value": ">100", "unit": "µg/mL"}]}
